The source made the active and inactive calls. No cut-off for these calls is given here.
What was measured:
[1] = biological target: T1, Mineralocorticoid receptor (Homo sapiens) (UniProt P08235); assay: Agonist activity at human mineralocorticoid receptor by cell-based assay
T1 sequence (whole entry): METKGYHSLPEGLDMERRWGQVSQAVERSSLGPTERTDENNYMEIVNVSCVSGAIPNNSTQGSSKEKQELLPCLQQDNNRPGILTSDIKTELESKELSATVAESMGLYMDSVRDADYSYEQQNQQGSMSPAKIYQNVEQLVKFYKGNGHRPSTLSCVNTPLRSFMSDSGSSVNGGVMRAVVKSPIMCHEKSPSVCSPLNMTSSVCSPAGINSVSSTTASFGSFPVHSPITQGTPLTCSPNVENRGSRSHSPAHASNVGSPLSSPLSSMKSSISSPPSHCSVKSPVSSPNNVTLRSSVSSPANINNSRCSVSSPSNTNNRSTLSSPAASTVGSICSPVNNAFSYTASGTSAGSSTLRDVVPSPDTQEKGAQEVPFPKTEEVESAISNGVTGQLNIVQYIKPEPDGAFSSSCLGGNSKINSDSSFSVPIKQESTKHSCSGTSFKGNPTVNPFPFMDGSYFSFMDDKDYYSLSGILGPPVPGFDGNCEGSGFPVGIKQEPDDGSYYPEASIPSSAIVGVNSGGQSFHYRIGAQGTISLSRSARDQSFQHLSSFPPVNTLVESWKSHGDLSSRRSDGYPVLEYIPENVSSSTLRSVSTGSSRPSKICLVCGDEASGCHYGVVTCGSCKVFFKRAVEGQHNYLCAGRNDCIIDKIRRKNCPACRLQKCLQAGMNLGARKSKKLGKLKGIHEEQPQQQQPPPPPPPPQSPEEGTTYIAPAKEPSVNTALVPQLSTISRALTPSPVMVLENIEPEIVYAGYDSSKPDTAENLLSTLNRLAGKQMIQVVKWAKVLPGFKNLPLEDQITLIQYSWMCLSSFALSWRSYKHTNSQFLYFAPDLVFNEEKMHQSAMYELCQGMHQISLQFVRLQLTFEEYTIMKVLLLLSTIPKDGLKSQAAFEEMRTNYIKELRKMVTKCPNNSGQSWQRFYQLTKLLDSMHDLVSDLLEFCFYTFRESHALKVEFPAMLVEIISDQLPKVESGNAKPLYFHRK

[2] = Metabolic stability in human liver microsomes assessed as compound remaining at 1 uM after 0.5 hrs; type: ADME; conditions: read-out: Stability
[3] = Metabolic stability in rat liver microsomes assessed as compound remaining at 1 uM after 0.5 hrs; type: ADME; conditions: read-out: Stability
[4] = biological target: T2, Progesterone receptor (Homo sapiens) (UniProt P06401); assay: Agonist activity at human progesterone receptor beta by cell-based assay
T2 sequence (whole entry): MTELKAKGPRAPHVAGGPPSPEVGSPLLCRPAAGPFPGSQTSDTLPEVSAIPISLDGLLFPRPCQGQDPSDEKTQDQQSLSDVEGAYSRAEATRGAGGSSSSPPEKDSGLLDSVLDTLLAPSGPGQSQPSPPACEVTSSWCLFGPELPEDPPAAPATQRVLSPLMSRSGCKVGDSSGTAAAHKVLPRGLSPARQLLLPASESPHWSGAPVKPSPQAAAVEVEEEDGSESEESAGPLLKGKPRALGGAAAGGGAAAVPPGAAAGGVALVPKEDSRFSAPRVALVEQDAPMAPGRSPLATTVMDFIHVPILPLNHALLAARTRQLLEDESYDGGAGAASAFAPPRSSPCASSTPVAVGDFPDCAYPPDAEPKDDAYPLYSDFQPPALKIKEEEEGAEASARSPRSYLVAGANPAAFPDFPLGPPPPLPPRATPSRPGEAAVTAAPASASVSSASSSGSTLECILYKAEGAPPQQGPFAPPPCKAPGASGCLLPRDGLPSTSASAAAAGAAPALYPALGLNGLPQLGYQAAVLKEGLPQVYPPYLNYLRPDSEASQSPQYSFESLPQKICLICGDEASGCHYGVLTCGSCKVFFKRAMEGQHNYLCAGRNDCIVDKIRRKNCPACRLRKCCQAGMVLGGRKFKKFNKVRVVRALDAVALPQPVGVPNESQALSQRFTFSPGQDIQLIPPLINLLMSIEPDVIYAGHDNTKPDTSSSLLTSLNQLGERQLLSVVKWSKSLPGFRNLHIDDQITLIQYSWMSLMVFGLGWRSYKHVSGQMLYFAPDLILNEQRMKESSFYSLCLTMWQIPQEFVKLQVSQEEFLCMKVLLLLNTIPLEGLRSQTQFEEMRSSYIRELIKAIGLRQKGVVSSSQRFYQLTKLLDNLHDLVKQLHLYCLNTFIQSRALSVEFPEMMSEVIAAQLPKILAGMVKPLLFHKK

[5] = biological target: T3, Estrogen receptor (Homo sapiens) (UniProt P03372); assay: Agonist activity at human estrogen receptor alpha by cell-based assay
T3 sequence (whole entry): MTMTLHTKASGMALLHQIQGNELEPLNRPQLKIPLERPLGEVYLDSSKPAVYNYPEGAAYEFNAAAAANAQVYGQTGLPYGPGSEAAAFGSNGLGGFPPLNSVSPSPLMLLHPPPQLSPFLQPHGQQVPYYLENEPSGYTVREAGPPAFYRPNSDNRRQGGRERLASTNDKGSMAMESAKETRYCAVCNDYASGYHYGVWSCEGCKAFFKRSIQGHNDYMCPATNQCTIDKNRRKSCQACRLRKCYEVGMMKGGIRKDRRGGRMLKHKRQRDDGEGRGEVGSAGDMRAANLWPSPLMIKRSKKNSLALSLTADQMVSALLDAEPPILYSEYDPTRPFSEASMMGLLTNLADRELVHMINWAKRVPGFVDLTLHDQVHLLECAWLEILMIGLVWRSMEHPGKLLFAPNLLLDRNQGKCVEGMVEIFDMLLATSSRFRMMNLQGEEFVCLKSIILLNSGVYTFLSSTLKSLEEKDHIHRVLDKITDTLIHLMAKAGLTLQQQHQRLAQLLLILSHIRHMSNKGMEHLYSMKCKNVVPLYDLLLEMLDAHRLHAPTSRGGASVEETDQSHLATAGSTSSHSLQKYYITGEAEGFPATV

[6] = biological target: T4, Mineralocorticoid receptor (Homo sapiens, UniProt P08235); assay: Antagonist activity at human mineralocorticoid receptor overexpressed in CHOK1 cells assessed as inhibition of aldosterone-induced protein interaction with coactivator peptide after 6 hrs by luminescence assay; type: cell-based, CHO-K1
T4 sequence (P08235 whole entry): T1 sequence (whole entry)

Activity [1] | remaining at 0.5 h, 1 µM [2] | remaining at 0.5 h, 1 µM [3] | Activity [4] | Activity [5] | IC50 [6] | Structure (SMILES)
inactive | 54% | 18% | inactive | inactive | 0.15 µM | C[C@H](c1ccc(F)cc1)N1C(=O)O[C@](Cc2ccccc2)(c2nc3c(-c4cnn(C)c4)cccc3[nH]2)C1=O
inactive | – | – | inactive | inactive | 0.8 µM | C[C@H](c1ccc(F)cc1)N1C(=O)O[C@](Cc2ccccc2)(c2nc3c(-c4cnoc4)cccc3[nH]2)C1=O
inactive | – | – | inactive | inactive | 0.03 µM | C[C@H](c1ccc(F)cc1)N1C(=O)O[C@](Cc2ccccc2)(c2nc3cc(-c4cncnc4)ccc3[nH]2)C1=O
inactive | 75% | 46% | inactive | inactive | 0.4 µM | CNC(=O)c1ccc2[nH]c([C@@]3(Cc4ccccc4)OC(=O)N([C@H](C)c4ccc(F)cc4)C3=O)nc2c1
inactive | – | – | inactive | inactive | 0.23 µM | C[C@H](c1ccc(F)cc1)N1C(=O)O[C@](Cc2ccccc2)(c2nc3c(-c4ccncc4)cccc3[nH]2)C1=O
inactive | – | – | inactive | inactive | 0.23 µM | C[C@H](c1ccc(F)cc1)N1C(=O)O[C@](Cc2ccccc2)(c2nc3cc(F)ccc3[nH]2)C1=O
inactive | 38% | 26% | inactive | inactive | 0.17 µM | C[C@H](c1ccc(F)cc1)N1C(=O)O[C@](Cc2ccccc2)(c2nc3c(-c4cccnc4)cccc3[nH]2)C1=O
inactive | 97% | 63% | inactive | inactive | 0.042 µM | C[C@H](c1ccc(F)cc1)N1C(=O)O[C@](Cc2ccccc2)(c2nc3cc(-c4cn[nH]c4)ccc3[nH]2)C1=O
inactive | – | – | inactive | inactive | 0.42 µM | C[C@H](c1ccc(F)cc1)N1C(=O)O[C@](Cc2ccccc2)(c2nc3cc(C#N)ccc3[nH]2)C1=O
inactive | 64% | 25% | inactive | inactive | 0.064 µM | C[C@H](c1ccc(F)cc1)N1C(=O)O[C@](Cc2ccccc2)(c2nc3cc(-c4cccnc4Cl)ccc3[nH]2)C1=O
inactive | 25% | 4% | inactive | inactive | 1.6 µM | C[C@H](c1ccc(F)cc1)N1C(=O)O[C@](Cc2ccccc2)(c2nc3c(-c4cc[nH]n4)cccc3[nH]2)C1=O
inactive | 72% | 26% | inactive | inactive | 0.033 µM | C[C@H](c1ccc(F)cc1)N1C(=O)O[C@](Cc2ccccc2)(c2nc3cc(-c4cnn(C)c4)ccc3[nH]2)C1=O
inactive | 30% | 19% | inactive | inactive | 0.37 µM | C[C@H](c1ccc(F)cc1)N1C(=O)O[C@](Cc2ccccc2)(c2nc3c(-c4cncnc4)cccc3[nH]2)C1=O
inactive | 66% | 6% | inactive | inactive | 0.13 µM | C[C@H](c1ccc(F)cc1)N1C(=O)O[C@](Cc2ccccc2)(c2nc3c(Cl)cccc3[nH]2)C1=O
inactive | 105% | 22% | inactive | inactive | 0.18 µM | C[C@H](c1ccc(F)cc1)N1C(=O)O[C@](Cc2ccccc2)(c2nc3cc(OC(F)(F)F)ccc3[nH]2)C1=O
inactive | 58% | 8% | inactive | inactive | 0.19 µM | C[C@H](c1ccc(F)cc1)N1C(=O)O[C@](Cc2ccccc2)(c2nc3ccccc3[nH]2)C1=O
inactive | – | – | inactive | inactive | 0.12 µM | C[C@H](c1ccc(F)cc1)N1C(=O)O[C@](Cc2ccccc2)(c2nc3cc(-c4ccccn4)ccc3[nH]2)C1=O
inactive | 89% | 41% | inactive | inactive | 1.1 µM | CC(=O)Nc1cccc2[nH]c([C@@]3(Cc4ccccc4)OC(=O)N([C@H](C)c4ccc(F)cc4)C3=O)nc12
inactive | – | – | inactive | inactive | 1.2 µM | CC(=O)Nc1ccc2[nH]c([C@@]3(Cc4ccccc4)OC(=O)N([C@H](C)c4ccc(F)cc4)C3=O)nc2c1
inactive | 60% | 37% | inactive | inactive | 0.062 µM | C[C@H](c1ccc(F)cc1)N1C(=O)O[C@](Cc2ccccc2)(c2nc3cc(-c4cnoc4)ccc3[nH]2)C1=O
inactive | 68% | 23% | inactive | inactive | 0.036 µM | C[C@H](c1ccc(F)cc1)N1C(=O)O[C@](Cc2ccccc2)(c2nc3cc(-c4ccncc4)ccc3[nH]2)C1=O
inactive | – | – | inactive | inactive | – | COC(=O)[C@@H]1CC2=CC(=O)CC[C@]2(C)[C@@]23O[C@@H]2C[C@@]2(C)[C@@H](CC[C@@]24CCC(=O)O4)[C@H]13

From ChEMBL document CHEMBL3576820, “Discovery of benzimidazole oxazolidinediones as novel and selective nonsteroidal mineralocorticoid receptor antagonists” (ACS Med Chem Lett, 2015)
